# In ChEMBL document CHEMBL3045806, “Antimicrobial, analgesic, DPPH scavenging activities and molecular docking study of some 1,3,5-triaryl-2-pyrazolines” (2012):
# Key:
# Assay type in all cases: functional
# Streptococcus pyogenes [1] = assay: Antimicrobial activity against Streptococcus pyogenes after 24 hr by micro dilution method
# Candida albicans [2] = assay: Antimicrobial activity against Candida albicans after 24 hr by micro dilution method
# Klebsiella pneumoniae [3] = assay: Antimicrobial activity against Klebsiella pneumoniae after 24 hr by micro dilution method
# Bacillus subtilis [4] = assay: Antimicrobial activity against Bacillus subtilis at 40 ug/ml after 24 hr by agar well diffusion method; conditions: read-out: IZ
# Streptococcus pyogenes [5] = assay: Antimicrobial activity against Streptococcus pyogenes at 40 ug/ml after 24 hr by agar well diffusion method; conditions: read-out: IZ
# Pseudomonas aeruginosa [6] = assay: Antimicrobial activity against Pseudomonas aeruginosa at 40 ug/ml after 24 hr by agar well diffusion method; conditions: read-out: IZ
# [7] = Antioxidant activity assessed as DPPH scavenging activity at 10 ug/ml after 30 min by UV-visible spectrophotometry
# Pseudomonas aeruginosa [8] = assay: Antimicrobial activity against Pseudomonas aeruginosa after 24 hr by micro dilution method
# Klebsiella pneumoniae [9] = assay: Antimicrobial activity against Klebsiella pneumoniae at 40 ug/ml after 24 hr by agar well diffusion method; conditions: read-out: IZ
# Aspergillus niger [10] = assay: Antimicrobial activity against Aspergillus niger at 40 ug/ml after 72 hr by agar well diffusion method; conditions: read-out: IZ
# Mus musculus = assay: Analgesic activity in Mus musculus Swiss albino (mouse) assessed as protection against acetic acid-induced writhing at 100 mg/kg, po administered 1 hr prior challenge measured after 5 min of challenge for 20 min
# Aspergillus niger [11] = assay: Antimicrobial activity against Aspergillus niger after 24 hr by micro dilution method
# Bacillus subtilis [12] = assay: Antimicrobial activity against Bacillus subtilis after 24 hr by micro dilution method
# Candida albicans [13] = assay: Antimicrobial activity against Candida albicans at 40 ug/ml after 72 hr by agar well diffusion method; conditions: read-out: IZ
SMILES,MIC (Streptococcus pyogenes [1]) [µg/mL],MIC (Candida albicans [2]) [µg/mL],MIC (Klebsiella pneumoniae [3]) [µg/mL],zone of inhibition at 40 µg/mL (Bacillus subtilis [4]) [mm],zone of inhibition at 40 µg/mL (Streptococcus pyogenes [5]) [mm],zone of inhibition at 40 µg/mL (Pseudomonas aeruginosa [6]) [mm],Activity [7] [%],MIC (Pseudomonas aeruginosa [8]) [µg/mL],zone of inhibition at 40 µg/mL (Klebsiella pneumoniae [9]) [mm],zone of inhibition at 40 µg/mL (Aspergillus niger [10]) [mm],Activity (Mus musculus) [%],MIC (Aspergillus niger [11]) [µg/mL],MIC (Bacillus subtilis [12]) [µg/mL],zone of inhibition at 40 µg/mL (Candida albicans [13]) [mm]
Cc1ccc(C2=NN(c3ccccc3)C(c3ccc(C)cc3)C2)cc1 (stereo unspecified),20,30,30,20,22,23,22.4,40,24,24,58.16,40,30,22
Fc1ccc(C2=NN(c3ccccc3)C(c3ccc(F)cc3)C2)cc1 (stereo unspecified),30,40,30,21,23,20,51.2,40,22,20,49.65,40,30,20
c1ccc(C2=NN(c3ccccc3)C(c3ccccc3)C2)cc1 (stereo unspecified),40,30,40,23,23,22,23.1,30,23,23,57.8,30,40,21
c1ccc(-c2ccc(C3=NN(c4ccccc4)C(c4ccc(-c5ccccc5)cc4)C3)cc2)cc1 (stereo unspecified),40,40,30,23,21,22,18.2,30,23,22,53.1,40,40,21
O=C(O)c1cn(C2CC2)c2cc(N3CCNCC3)c(F)cc2c1=O [CIPROFLOXACIN],–,–,–,24,24,24,–,–,24,–,–,–,–,–
Brc1ccc(C2=NN(c3ccccc3)C(c3ccc(Br)cc3)C2)cc1 (stereo unspecified),40,20,40,23,21,22,40.3,30,21,20,53.75,40,40,20
CC(=O)Oc1ccccc1C(=O)O [ASPIRIN],–,–,–,–,–,–,–,–,–,–,58.25,–,–,–
OC(Cn1cncn1)(Cn1cncn1)c1ccc(F)cc1F [FLUCONAZOLE],–,–,–,–,–,–,–,–,–,24,–,–,–,23
COc1ccc(C2=NN(c3ccccc3)C(c3ccc(OC)cc3)C2)cc1 (stereo unspecified),40,40,30,21,23,24,39.6,30,22,21,58.74,30,40,20
Clc1ccc(C2=NN(c3ccccc3)C(c3ccc(Cl)cc3)C2)cc1 (stereo unspecified),30,30,30,22,24,21,31.8,30,20,22,50,30,30,21
O=C1O[C@H]([C@@H](O)CO)C(O)=C1O,–,–,–,–,–,–,69.2,–,–,–,–,–,–,–
